Laboratory results published in US20240082296A1, “TREATMENT OF MUSCLE ATROPHY USING DEXTRAN SULFATE” (TX MEDIC AB, priority 2020, published 2024).
Marks after values point to notes of the source that are not given here.

Tested on: severe traumatic brain injury (sTBI) in rats
Test: HPLC of free amino acids and amino group containing compounds in rat brain after sTBI (Example 4)
Assay type: in vivo
Procedure: The effects of daily sub-cutaneous injections of dextran sulfate on glutamate excitotoxicity and mitochondrial function after severe traumatic brain injury (sTBI) in rats were evaluated by high-performance liquid chromatography (HPLC) analysis of frozen brain samples.
The experimental protocol used in this study was approved by the Ethical Committee of the Catholic University of Rome, according to international standards and guidelines for animal care. Male Wistar rats of 300-350 g body weight (b.w.) were fed with standard laboratory diet and water ad libitum in a controlled environment.
They were divided into three groups: • 1) n=6 animals subjected to sTBI, with drug administration after 30 minutes and sacrifice at 2 days post-TBI (Acute phase 1) • 2) n=6 animals subjected to severe-TBI, with drug administration after 30 minutes and sacrifice at 7 days post-TBI (Acute phase 2). • 3) n=6 animals subjected to severe-TBI, with drug administration after 3 days and sacrifice at 7 days post-TBI (Chronic phase).
As the anesthetic mixture, animals received 35 mg/kg b.w. ketamine and 0.25 mg/kg b.w. midazolam by i.p. injection. sTBI was induced by dropping a 450 g weight from 2 m height on to the rat head that had been protected by a metal disk previously fixed on the skull, according to the “weight drop” impact acceleration model (Marmarou et al., A new model of diffuse brain injury in rats. Part I: Pathophysiology and biomechanics. J Neurosurg. 1994; 80: 291-300). […] At the end of each period of treatment, rats were anesthetized again and then immediately sacrificed.
The drug treatment was a subcutaneous injection of 0.5 ml of dextran sulfate (Tikomed AB, Viken, Sweden, WO 2016/076780; 15 mg/kg) and administered according to the aforementioned schematic protocol.
An in vivo craniectomy was performed in all animals during anesthesia, after carefully removing the rat's skull, the brain was exposed and removed with a surgical spatula and quickly dropped in liquid nitrogen. After the wet weight (w.w.) determination, tissue preparation was affected as previously disclosed (Tavazzi et al., Cerebral oxidative stress and depression of energy metabolism correlate with severity of diffuse brain injury in rats. Neurosurgery. 2005; 56: 582-589; Vagnozzi et al., Temporal window of metabolic brain vulnerability to concussions: mitochondrial-related impairment-part I. Neurosurgery. 2007; 61: 379-388; Tavazzi et al., Temporal window of metabolic brain vulnerability to concussions: oxidative and nitrosative stresses-part II. Neurosurgery. 2007; 61: 390-395; Amorini et al., Severity of experimental traumatic brain injury modulates changes in concentrations of cerebral free amino acids. J Cell Mol Med. 2017; 21: 530-542.). Briefly, whole brain homogenization was performed with 7 ml of ice-cold, nitrogen-saturated, precipitating solution composed by CH3CN+10 mM KH2PO4, pH 7.40, (3:1; v:v), and using an Ultra-Turrax set at 24,000 rpm/min (Janke & Kunkel, Staufen, Germany). After centrifugation at 20,690×g, for 10 min at 4° C., the clear supernatants were saved, pellets were supplemented with 3 ml of the precipitating solution and homogenized again as described above. A second centrifugation was performed (20,690×g, for 10 min at 4° C.), pellets were saved, supernatants combined with those previously obtained, extracted by vigorous agitation with a double volume of HPLC-grade CHCl3 and centrifuged as above. The upper aqueous phases containing water-soluble low-molecular weight compounds were collected, subjected to chloroform washings for two more times (this procedure allowed the removal of all the organic solvent and of any lipid soluble compound from the buffered tissue extracts), adjusted in volumes with 10 mM KH2PO4, pH 7.40, to have ultimately aqueous 10% tissue homogenates and saved at −80° C. until assayed. […]

[1] = Acute phase 1 (15 mg/kg s.c. 30 min after sTBI, sacrifice 2 days post-TBI)
[2] = Acute phase 2 (15 mg/kg s.c. 30 min after sTBI, sacrifice 7 days post-TBI)
[3] = Chronic phase (15 mg/kg s.c. 3 days after sTBI, sacrifice 7 days post-TBI)

## dextran sulfate
[1]
  cerebral ALA concentration: 0.50 ± 0.12^a μmol/g (w.w.)
  cerebral ARG concentration: 0.13 ± 0.02^b,d μmol/g (w.w.)
  cerebral ASN concentration: 0.12 ± 0.02^i μmol/g (w.w.)
  cerebral ASP concentration: 2.40 ± 0.56^d,i μmol/g (w.w.)
  cerebral CITR concentration: 0.018 ± 0.004 µmol/g (w.w.)
  cerebral GABA concentration: 1.43 ± 0.25^a μmol/g (w.w.)
  cerebral GLN concentration: 4.78 ± 1.09^a μmol/g (w.w.)
  cerebral GLU concentration: 9.81 ± 1.66^i μmol/g (w.w.)
  cerebral GLY concentration: 0.83 ± 0.25^a,c μmol/g (w.w.)
  cerebral HIS concentration: 0.068 ± 0.015^b μmol/g (w.w.)
  cerebral ILE concentration: 0.038 ± 0.007 µmol/g (w.w.)
  cerebral L-Cystat concentration: 0.185 ± 0.031^b,c,i μmol/g (w.w.)
  cerebral LEU concentration: 0.021 ± 0.005^a,c μmol/g (w.w.)
  cerebral LYS concentration: 0.236 ± 0.057^b,d,h μmol/g (w.w.)
  cerebral MET concentration: 0.016 ± 0.005^d,j μmol/g (w.w.)
  cerebral ORN concentration: 0.014 ± 0.007 µmol/g (w.w.)
  cerebral PHE concentration: 0.031 ± 0.011^b,d μmol/g (w.w.)
  cerebral SAH concentration: 0.033 ± 0.008^b,c,j μmol/g (w.w.)
  cerebral SER concentration: 0.88 ± 0.25^a μmol/g (w.w.)
  cerebral TAU concentration: 4.86 ± 0.85^b μmol/g (w.w.)
  cerebral THR concentration: 0.92 ± 0.29^a μmol/g (w.w.)
  cerebral TRP concentration: 0.030 ± 0.007^b,dg,i μmol/g (w.w.)
  cerebral TYR concentration: 0.15 ± 0.03 µmol/g (w.w.)
  cerebral VAL concentration: 0.042 ± 0.011 µmol/g (w.w.)
[2]
  cerebral ALA concentration: 0.52 ± 0.24^a,e μmol/g (w.w.)
  cerebral ARG concentration: 0.16 ± 0.03 µmol/g (w.w.)
  cerebral ASN concentration: 0.13 ± 0.03^i μmol/g (w.w.)
  cerebral ASP concentration: 2.94 ± 0.98^f,j μmol/g (w.w.)
  cerebral CITR concentration: 0.018 ± 0.008 µmol/g (w.w.)
  cerebral GABA concentration: 1.60 ± 0.24^a μmol/g (w.w.)
  cerebral GLN concentration: 3.66 ± 0.41 µmol/g (w.w.)
  cerebral GLU concentration: 9.93 ± 1.56^e,i μmol/g (w.w.)
  cerebral GLY concentration: 0.71 ± 0.16^f,i μmol/g (w.w.)
  cerebral HIS concentration: 0.055 ± 0.019 µmol/g (w.w.)
  cerebral ILE concentration: 0.048 ± 0.017^a μmol/g (w.w.)
  cerebral L-Cystat concentration: 0.173 ± 0.038^b,f,i μmol/g (w.w.)
  cerebral LEU concentration: 0.018 ± 0.004 µmol/g (w.w.)
  cerebral LYS concentration: 0.32 ± 0.04^a,e,i μmol/g (w.w.)
  cerebral MET concentration: 0.022 ± 0.006^b,e,i μmol/g (w.w.)
  cerebral ORN concentration: 0.011 ± 0.005 µmol/g (w.w.)
  cerebral PHE concentration: 0.028 ± 0.010 µmol/g (w.w.)
  cerebral SAH concentration: 0.026 ± 0.010^f,i μmol/g (w.w.)
  cerebral SER concentration: 0.71 ± 0.28^b μmol/g (w.w.)
  cerebral TAU concentration: 3.80 ± 1.19 µmol/g (w.w.)
  cerebral THR concentration: 0.66 ± 0.23 µmol/g (w.w.)
  cerebral TRP concentration: 0.015 ± 0.006 µmol/g (w.w.)
  cerebral TYR concentration: 0.172 ± 0.046^b,f μmol/g (w.w.)
  cerebral VAL concentration: 0.057 ± 0.017 µmol/g (w.w.)
[3]
  cerebral ALA concentration: 0.57 ± 0.28^a,e μmol/g (w.w.)
  cerebral ARG concentration: 0.14 ± 0.02 µmol/g (w.w.)
  cerebral ASN concentration: 0.18 ± 0.02^a μmol/g (w.w.)
  cerebral ASP concentration: 4.46 ± 0.70^a,f μmol/g (w.w.)
  cerebral CITR concentration: 0.020 ± 0.006 µmol/g (w.w.)
  cerebral GABA concentration: 1.85 ± 0.65^a μmol/g (w.w.)
  cerebral GLN concentration: 3.98 ± 0.34 µmol/g (w.w.)
  cerebral GLU concentration: 13.58 ± 1.28^a μmol/g (w.w.)
  cerebral GLY concentration: 1.05 ± 0.13^a,f μmol/g (w.w.)
  cerebral HIS concentration: 0.047 ± 0.021 µmol/g (w.w.)
  cerebral ILE concentration: 0.041 ± 0.016^b μmol/g (w.w.)
  cerebral L-Cystat concentration: 0.26 ± 0.05^a,f μmol/g (w.w.)
  cerebral LEU concentration: 0.024 ± 0.032^b,f μmol/g (w.w.)
  cerebral LYS concentration: 0.179 ± 0.036 µmol/g (w.w.)
  cerebral MET concentration: 0.009 ± 0.004^b μmol/g (w.w.)
  cerebral ORN concentration: 0.017 ± 0.009^a,e μmol/g (w.w.)
  cerebral PHE concentration: 0.033 ± 0.011^b μmol/g (w.w.)
  cerebral SAH concentration: 0.050 ± 0.013^a μmol/g (w.w.)
  cerebral SER concentration: 0.93 ± 0.27^a,e μmol/g (w.w.)
  cerebral TAU concentration: 4.49 ± 0.43^a μmol/g (w.w.)
  cerebral THR concentration: 0.75 ± 0.24^a,e μmol/g (w.w.)
  cerebral TRP concentration: 0.012 ± 0.007 µmol/g (w.w.)
  cerebral TYR concentration: 0.21 ± 0.05^f μmol/g (w.w.)
  cerebral VAL concentration: 0.040 ± 0.016^b μmol/g (w.w.)
Drug administered early post-injury (30 min following sTBI), 15 mg/kg s.c.
  increase in cerebral glutamate (GLU) induced by sTBI: remarkable inhibition
Drug injected at 3 days after sTBI
  efficacy on glutamate excitotoxicity marker: no efficacy
Rat brain after sTBI, 15 mg/kg s.c.
  compounds of the methyl cycle (Met, L-Cystat, SAH): significant beneficial effects
